Assay results reported in patent publication US9655968B2, “Baclofen solution for low-volume therapeutic delivery” (Wayne State University, priority 2007, dated 2017).
Values after ≈ are worked out from the molar mass of the structure shown. Like-named read-outs stand apart in the source and are kept apart here.

Assays:
[1] = over a 10-year period, near neutral pH, room temperature; calculated, Ahuja 1985; cited from earlier work
[2] = Baclofen solubilization study in multivalent physiologic ion (MPI) solution; format: physicochemical; settings: aqueous buffer, thermodynamic from solid
Method: Multivalent physiologic ion solution formation. A solution (A) is produced with 8.66 g NaCl, 0.224 g KCl, 0.206 g CaCl2.2H2O and 0.163 g MgCl2.6H2O dissolving in 500 mL of deionized water. A solution (B) is produced with 0.214 g Na2HPO4.7H2O and 0.027 g NaH2PO4.H2O dissolving in 450 mL of water. The pH is adjusted to 6.0, 6.5, 7.0, 7.3, 7.6 and 8.0 as necessary with either NaOH or H3PO4 and dilution to final volume of 500 mL with deionized water. A final multivalent physiologic ion solution is obtained by mixing equal parts of Solution A and B. pH is tested and adjusted to the desired final pH if necessary. All reagents are available from sources known in the art. […]
Baclofen solubilization study in multivalent physiologic ion solution. […] The aliquots are analyzed by high performance liquid chromatography (HPLC). […] Baclofen concentrations above 4 mg/ml are readily achieved.
Analyses of baclofen solutions to confirm concentrations. Baclofen concentrations of Examples 2 and 3 are determined to confirm soluble levels in MPI or aCSF in the inventive solutions. Baclofen concentrations are quantified by LC/MS/MS using an Applied Biosystems API 400 electrospray triple quadrupole mass spectrometer. […] The transition between 214.1 and 151.2 is used for quantification. […]
Analyses of baclofen solutions to confirm concentrations. […] Baclofen concentrations are determined within 10% of expected values.

[3] = cited from earlier work
[4] = LIORESAL INTRATHECAL product insert

solubility ([2]; MPI pH 6.0-8.0, 37° C., aliquots at 2, 5 and 30 min, HPLC, read-out: baclofen concentration achieved in MPI solution): > 4000 µg/mL
solubility ([2]; rapidly achieved without sonication or excessive agitation, read-out: solubility of baclofen in MPI solution): 6000 µg/mL (≈ 28.1 mM)
SMILES: NCC(CC(=O)O)c1ccc(Cl)cc1 (stereo not shown) [Baclofen]
degradation of dissolved baclofen [1]: less than 10%
solubility in chloroform [3, 4]: insoluble
solubility in methanol [3, 4]: very slightly soluble
solubility in water [3, 4]: slightly soluble
solubility in aqueous saline solution after extreme heating and intense agitation ([3]; heating to as much as 100° C., sonication or high speed stirring, US 2006/0009523): ≤ 12000 µg/mL
baclofen concentration by acid dissolution and back titration method ([3]; initial dissolution at pH below 3.87, then base added, US 2006/0009523): ~10 mg/mL
maximum saline concentration ([3]; saline): 2 mg/mL
solubility in water or saline (known in the art) ([3]; water or saline): below 2 mg/mL
